Data reported in US20050112573A1, “Method of detecting toxic substance” (priority 2001, published 2005).

Test system: yeast genes (level of expressed mRNA)
Assay: DNA chip analysis of expressed mRNA of yeast genes after 2 h culture with a toxic chemical substance
Type: cell-based, Saccharomyces cerevisiae S288C
How it was run: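 S. cerevisiae S288C grown at 25° C in YPD; toxicant added at log phase at growth-inhibitory, non-lethal levels for 2 h, untreated cells as control. Poly(A) mRNA reverse-transcribed with Cy3/Cy5-dUTP, hybridized to whole-genome chip at 65° C >12 h; value is fluorescence ratio versus untreated.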

manganese ethylenebis(dithiocarbamate) [(8)]
1.6: The level of expressed mRNA in the presence of chemical substance/The level of expressed mRNA in the absence of chemical substance (yeast gene YBL078C) | The level of expressed mRNA in the presence of chemical substance/The level of expressed mRNA in the absence of chemical substance (yeast gene YDR055W)
2.1: The level of expressed mRNA in the presence of chemical substance/The level of expressed mRNA in the absence of chemical substance (yeast gene YBL043W)
1.4: The level of expressed mRNA in the presence of chemical substance/The level of expressed mRNA in the absence of chemical substance (yeast gene YDR259C) | The level of expressed mRNA in the presence of chemical substance/The level of expressed mRNA in the absence of chemical substance (yeast gene YDR315C) | The level of expressed mRNA in the presence of chemical substance/The level of expressed mRNA in the absence of chemical substance (yeast gene YEL066W) | The level of expressed mRNA in the presence of chemical substance/ (yeast gene YER079W, ratio to control without chemical substance, 2 h culture) | The level of expressed mRNA in the presence of chemical substance/ (yeast gene YER163C, ratio to control without chemical substance, 2 h culture)
0.8: The level of expressed mRNA in the presence of chemical substance/ (yeast gene YAL053W, ratio to control without chemical) | The level of expressed mRNA in the presence of chemical substance/ (yeast gene YDL072C, ratio to control without chemical) | The level of expressed mRNA in the presence of chemical substance/The level of expressed mRNA in the absence of chemical substance (yeast gene YDR388W) | The level of expressed mRNA in the presence of chemical substance/The level of expressed mRNA in the absence of chemical substance (yeast gene YER107C)
2.0: The level of expressed mRNA in the presence of chemical substance/The level of expressed mRNA in the absence of chemical substance (yeast gene YDR085C)
1.9: The level of expressed mRNA in the presence of chemical substance/ (yeast gene YBL107C, ratio to control without chemical substance, 2 h culture)
1.3: The level of expressed mRNA in the presence of chemical substance/The level of expressed mRNA in the absence of chemical substance (yeast gene YAR010C) | The level of expressed mRNA in the presence of chemical substance/The level of expressed mRNA in the absence of chemical substance (yeast gene YDR104C) | The level of expressed mRNA in the presence of chemical substance/The level of expressed mRNA in the absence of chemical substance (yeast gene YDR115W)
1.5: The level of expressed mRNA in the presence of chemical substance/in the absence of chemical substance (yeast gene YDR297W) | The level of expressed mRNA in the presence of chemical substance/The level of expressed mRNA in the absence of chemical substance (yeast gene YDR510W)
0.9: The level of expressed mRNA in the presence of chemical substance/The level of expressed mRNA in the absence of chemical substance (yeast gene YCR071C) | The level of expressed mRNA in the presence of chemical substance/ (yeast gene YDR411C, ratio to control without chemical substance, 2 h culture) | The level of expressed mRNA in the presence of chemical substance/ (yeast gene YER158C, ratio to control without chemical substance, 2 h culture)
1.2: The level of expressed mRNA in the presence of chemical substance/ (yeast gene YBL048W, ratio to control without chemical substance, 2 h culture) | The level of expressed mRNA in the presence of chemical substance/The level of expressed mRNA in the absence of chemical substance (yeast gene YCR004C) | The level of expressed mRNA in the presence of chemical substance/The level of expressed mRNA in the absence of chemical substance (yeast gene YDL008W) | The level of expressed mRNA in the presence of chemical substance/The level of expressed mRNA in the absence of chemical substance (yeast gene YDR358W) | The level of expressed mRNA in the presence of chemical substance/ (yeast gene YEL001C, ratio to control without chemical) | The level of expressed mRNA in the presence of chemical substance/ (yeast gene YER035W, ratio to control without chemical substance, 2 h culture) | The level of expressed mRNA in the presence of chemical substance/ (yeast gene YER106W, ratio to control without chemical) | The level of expressed mRNA in the presence of chemical substance/The level of expressed mRNA in the absence of chemical substance (yeast gene YER130C)
0.7: The level of expressed mRNA in the presence of chemical substance/in the absence of chemical substance (yeast gene YBR036C) | The level of expressed mRNA in the presence of chemical substance/The level of expressed mRNA in the absence of chemical substance (yeast gene YBR214W) | The level of expressed mRNA in the presence of chemical substance/ (yeast gene YDL222C, ratio to control without chemical) | The level of expressed mRNA in the presence of chemical substance/The level of expressed mRNA in the absence of chemical substance (yeast gene YDR084C) | The level of expressed mRNA in the presence of chemical substance/in the absence of chemical substance (yeast gene YDR387C) | The level of expressed mRNA in the presence of chemical substance/The level of expressed mRNA in the absence of chemical substance (yeast gene YEL042W) | The level of expressed mRNA in the presence of chemical substance/The level of expressed mRNA in the absence of chemical substance (yeast gene YER039C)
0.6: The level of expressed mRNA in the presence of chemical substance/The level of expressed mRNA in the absence of chemical substance (yeast gene YCL027W) | The level of expressed mRNA in the presence of chemical substance/ (yeast gene YDR545W, ratio to control without chemical substance, 2 h culture)
0.5: The level of expressed mRNA in the presence of chemical substance/in the absence of chemical substance (yeast gene YBR298C) | The level of expressed mRNA in the presence of chemical substance/The level of expressed mRNA in the absence of chemical substance (yeast gene YCR088W) | The level of expressed mRNA in the presence of chemical substance/The level of expressed mRNA in the absence of chemical substance (yeast gene YDR432W)
1.0: The level of expressed mRNA in the presence of chemical substance/The level of expressed mRNA in the absence of chemical substance (yeast gene YBL005W-A) | The level of expressed mRNA in the presence of chemical substance/in the absence of chemical substance (yeast gene YDL078C) | The level of expressed mRNA in the presence of chemical substance/The level of expressed mRNA in the absence of chemical substance (yeast gene YDR481C) | The level of expressed mRNA in the presence of chemical substance/ (yeast gene YFL006W, ratio to control without chemical substance, 2 h culture)
1.1: The level of expressed mRNA in the presence of chemical substance/ (yeast gene YDL204W, ratio to control without chemical) | The level of expressed mRNA in the presence of chemical substance/in the absence of chemical substance (yeast gene YDL215C) | The level of expressed mRNA in the presence of chemical substance/ (yeast gene YDR330W, ratio to control without chemical substance, 2 h culture) | The level of expressed mRNA in the presence of chemical substance/ (yeast gene YER004W, ratio to control without chemical substance, 2 h culture) | The level of expressed mRNA in the presence of chemical substance/ (yeast gene YER175C, ratio to control without chemical substance, 2 h culture)
5.8: The level of expressed mRNA in the presence of chemical substance/The level of expressed mRNA in the absence of chemical substance (yeast gene YDL238C)
1.7: The level of expressed mRNA in the presence of chemical substance/The level of expressed mRNA in the absence of chemical substance (yeast gene YBL041W) | The level of expressed mRNA in the presence of chemical substance/The level of expressed mRNA in the absence of chemical substance (yeast gene YCL020W) | The level of expressed mRNA in the presence of chemical substance/ (yeast gene YDR511W, ratio to control without chemical substance, 2 h culture)
